Results as given in patent US20070155882A1, “Curable liquid composition, cured film, and antistatic laminate” (priority 2003, published 2007).

Test: Solubility of compound (B) in solvent (solid content of saturated solution)
Assay type: physicochemical
Experimental: Specifically, whether a specific solvent is the component (C) or the component (D) is determined depending on the type of the component (B). […] In more detail, the solubility is determined by measuring the solid content of the component (B) in a solution consisting of the component (B) and the solvent.
The supernatant liquid of the resulting mixture was dried on a hot plate at 120° C. for one hour and weighed to calculate the solid content.

[1] = solvent: IPA (isopropyl alcohol)

Row | Molecule | solubility in solvent [1] | solubility in solvent (solvent: MeOH (methanol)) | solubility in solvent (solvent: EtOH (ethanol)) | solubility in solvent (solvent: water) [wt %]
1 | C=CC(=O)OCC(COCC(COC(=O)C=C)(COC(=O)C=C)COC(=O)C=C)(COC(=O)C=C)COC(=O)C=C [Example B-1, Dipentaerythritol hexaacrylate] | ≧50 wt % | ≧50 wt % |  | 
2 | C=CC(=O)OCCn1c(=O)n(CCOC(=O)C=C)c(=O)n(CCOC(=O)C=C)c1=O [Example B-3, Tris(2-hydroxyethyl)isocyanurate triacrylate] | 7.1 wt % | 49 wt % | 1.8 wt % | 1.2
3 | Tricyclodecanediyldimethanol diacrylate [Example B-2] | ≧50 wt % | ≧50 wt % | ≧50 wt % | <0.1
